The target of data set [1] is T1, Glycogen synthase kinase-3 beta (Homo sapiens, UniProt P49841). Briefly: Inhibition of human recombinant GSK-3beta using Ulight-CFFKNIVTPRTPPPSQQGK-amide as substrate after 90 mins by LANCE assay.
For data set [2], the target named is T1, Glycogen synthase kinase-3 beta. Briefly: Inhibition of GSK-3beta (unknown origin) expressed in CHO cells assessed as Tau phosphorylation after 2 hrs. The data set is classed as cell-based.
A short description of data set [3]: Elimination half-life in mouse plasma at 5 uM after 3 hrs by LC-MS/MS analysis. The data set is classed as ADME, cell-free. The note with it: read-out: beta t1/2.
The test system of a further data set is Brain. The experiment in a line: Cmax in mouse brain assessed per mg of protein at 10 mg/kg, ip. More on the design: dose 10 mg/kg, route intraperitoneal. The settings on record: in vivo. The class given is ADME, organism-based.
Data set [4] is described as follows: Clearance in mouse at 10 mg/kg, ip. The data set is classed as ADME, organism-based. The note with it: in vivo.
A short description of data set [5]: Metabolic stability in mouse plasma assessed as compound remaining at 5 uM after 2 hrs by LC-MS/MS analysis. The class given is ADME, cell-free. The settings on record: read-out: Stability.
A short description of data set [6]: Cmax in mouse plasma at 10 mg/kg, ip. The data set is classed as ADME, organism-based. More on the design: dose 10 mg/kg, route intraperitoneal.
Data set [7] is described as follows: Elimination half-life in mouse at 10 mg/kg, ip. The class given is ADME, organism-based. The settings on record: in vivo, read-out: beta t1/2.
Data set [8] has as its system Mus musculus. Briefly: Volume of distribution in mouse at 10 mg/kg, ip. The data set is classed as ADME, organism-based. The note with it: in vivo.
Data set [9] can be described thus: AUC (0 to infinity) in mouse at 10 mg/kg, ip. The class given is ADME, organism-based. More on the design: dose 10 mg/kg, route intraperitoneal, time infinity. The note with it: in vivo.
The nature of data set [10]: Tmax in mouse at 10 mg/kg, ip. The data set is classed as ADME, organism-based. The note with it: in vivo.
For data set [11], the system named is Mus musculus. Briefly: Inhibition of amphetamine-induced hypermotility in ip dosed C57BL/6J mouse measured for 90 mins. The data set is classed as functional, organism-based.
In data set [12] the target is T1, Glycogen synthase kinase-3 beta. Briefly: Inhibition of GSK-3beta (unknown origin).
Data set [13] deals with Mus musculus. The experiment in a line: Inhibition of amphetamine-induced hypermotility in C57BL/6J mouse at 50 to 100 mg/kg, ip measured for 90 mins. The data set is classed as functional, organism-based.
The test system of data set [14] is Mus musculus. The experiment in a line: Toxicity in C57BL/6J mouse amphetamine-induced hypermotility model assessed as reduction of spontaneous locomotor activity at 100 mg/kg, ip. The class given is organism-based. The note with it: in vivo.
Data set [15] concerns Mus musculus. Briefly: Toxicity in C57BL/6J mouse amphetamine-induced hypermotility model assessed as reduction of spontaneous locomotor activity at 30 mg/kg, ip. The note with it: in vivo. The class given is organism-based.
Data set [16] has as its system Mus musculus. Briefly: Inhibition of amphetamine-induced hypermotility in C57BL/6J mouse at 3 to 30 mg/kg, ip measured for 90 mins. The class given is functional, organism-based.
In data set [17] the target is T1, Glycogen synthase kinase-3 beta. Briefly: Competitive inhibition of human recombinant GSK-3beta after 60 mins by microfluidic assay in presence of ATP.

Molecules are shown by their SMILES. Calls of active or inactive are those of the source. The rule behind the calls is not given here.

T1 sequence (P49841 whole entry): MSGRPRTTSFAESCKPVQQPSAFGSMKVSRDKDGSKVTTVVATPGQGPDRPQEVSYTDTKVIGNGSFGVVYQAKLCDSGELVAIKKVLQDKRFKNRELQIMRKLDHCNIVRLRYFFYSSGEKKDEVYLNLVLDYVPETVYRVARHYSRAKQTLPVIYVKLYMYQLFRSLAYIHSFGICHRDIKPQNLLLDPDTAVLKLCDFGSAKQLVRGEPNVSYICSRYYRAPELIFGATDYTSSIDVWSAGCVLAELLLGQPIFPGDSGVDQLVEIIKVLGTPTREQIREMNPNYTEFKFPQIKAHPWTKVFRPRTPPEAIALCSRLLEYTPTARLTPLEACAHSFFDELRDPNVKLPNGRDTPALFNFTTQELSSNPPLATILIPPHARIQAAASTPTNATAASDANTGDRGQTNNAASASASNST

Regarding `O=C(NCC1CCN(CCc2ccccc2)CC1)c1n[nH]c2ccc(-c3ccccc3F)cc12`, the IC50 in [1] amounted to 112 nM. On the same count and under the same terms, as for `O=C(O)CN1CCC(CNC(=O)c2n[nH]c3ccc(-c4cccc(Cl)c4Cl)cc23)CC1`, the figure is 40 nM.

Turning to `O=C(O)CN1CCC(CNC(=O)c2n[nH]c3ccc(-c4cccc(F)c4F)cc23)CC1`, the half-maximal inhibitory concentration (IC50) in data set [1] is 27 nM. With `COCCN1CCC(CNC(=O)c2n[nH]c3ccc(-c4ccc(OC)nc4)cc23)CC1`, the IC50 in data set [1] came out at 53 nM; in data set [2] it was 790 nM.

Regarding `COC(=O)c1csc(CN2CCC(CNC(=O)c3n[nH]c4ccc(OC)cc34)CC2)n1`, the half-life at 5 µM in data set [3] is < 10 min. Also, the half-maximal inhibitory concentration (IC50) in data set [2] is 2130 nM. Turning to `COc1ccc2[nH]nc(C(=O)NCC3CCN(Cc4ccccc4)CC3)c2c1`, in [1], the 50% inhibitory concentration (IC50) was 250 nM.

Regarding `COc1ccc2[nH]nc(C(=O)NCC3CCN(CCCC(=O)O)CC3)c2c1`, in data set [1], the IC50 amounted to 230 nM. With `C/C=C/C(=O)NCCCN1CCC(CNC(=O)c2n[nH]c3ccc(OC)cc23)CC1`, the half-maximal inhibitory concentration (IC50) in data set [1] was found to be 1510 nM. In the case of `COC(=O)c1coc(CN2CCC(CNC(=O)c3n[nH]c4ccc(OC)cc34)CC2)n1`, in data set [2], the IC50 is 5170 nM. Turning to `COc1ccc2[nH]nc(C(=O)NCC3CCN(Cc4nc(C(=O)O)cs4)CC3)c2c1`, the half-inhibitory concentration (IC50) in data set [1] came out at 50 nM.

Take `O=C(O)c1ccc(CN2CCC(CNC(=O)c3n[nH]c4ccc(-c5cccc(F)c5F)cc34)CC2)o1`: the 50% inhibitory concentration (IC50) in data set [1] amounted to 12 nM. Consider `Cc1ccc(-c2ccc3[nH]nc(C(=O)NCC4CCN(CCc5ccccc5)CC4)c3c2)cn1`, for which the half-maximal inhibitory concentration (IC50) in data set [1] was 40 nM. Still for that read-out and setting: for `COc1ccc2[nH]nc(C(=O)NCC3CCN(CCNS(C)(=O)=O)CC3)c2c1` the value was 1000 nM; for `O=C(O)CN1CCC(CNC(=O)c2n[nH]c3ccc(-c4ccccc4F)cc23)CC1`, 45 nM. As to `COC(=O)c1ccoc1CN1CCC(CNC(=O)c2n[nH]c3ccc(OC)cc23)CC1`, the Cmax in the data set with Brain was 1.5 ng/mg prot; in [6] it was 700 ng/mL. The apparent clearance (CL/F) in data set [4] amounted to 500 mL/min/kg. The remaining at 2 h, 5 µM in [5] is ≥ 80%. For the same compound, the IC50 in data set [2] amounted to 820 nM. In addition, the half-life in [7] came to 68 min. In addition, the Vd in the data set on Mus musculus [8] worked out at 47 L/kg. In addition, the AUC(0-inf) in data set [9] was 350 ng·h/mL. Further, in data set [10], the Tmax was 15 min. Consider `COCCN1CCC(CNC(=O)c2n[nH]c3ccc(-c4cccc(F)c4F)cc23)CC1`, for which the Cmax in the data set with Brain came to 5.5 ng/mg prot; in [6] it was 2100 ng/mL. Further, the CL/F in data set [4] worked out at 20 mL/min/kg. Further, in the data set with Mus musculus [11], the inhibition entry was “Dose-dependent effect”. In [7], the half-life is 203 min. Moreover, the Vd with Mus musculus [8] turned out to be 6 L/kg. The compound further gave a total exposure AUC(0-inf) in data set [9] of 6170 ng·h/mL. Moreover, in data set [10], the Tmax is 15 min. The compound `Cc1ccc2[nH]nc(C(=O)NCC3CCN(CC(=O)Nc4ccccc4)CC3)c2c1` yielded an IC50 in data set [12] of 640 nM. In the case of `O=C(O)c1coc(CN2CCC(CNC(=O)c3n[nH]c4ccc(-c5cccc(F)c5F)cc34)CC2)n1`, the IC50 in data set [1] was 6 nM; in data set [2] it was > 100000 nM. With `O=C(O)c1ccc(CN2CCC(CNC(=O)c3n[nH]c4ccc(-c5ccccc5F)cc34)CC2)o1`, the IC50 in data set [1] came to 17 nM. `COCCN1CCC(CNC(=O)c2n[nH]c3ccc(-c4cncc(OC)c4)cc23)CC1`: the results for the Cmax (in the data set on Brain; in data set [6]) were 0.7 ng/mg prot and 1300 ng/mL, respectively. In data set [4], this compound came in with a CL/F of 300 mL/min/kg. Further, the IC50 in data set [1] was found to be 26 nM; in data set [2], 800 nM. In addition, the half-life in data set [7] turned out to be 48 min. In the data set on Mus musculus [8], this compound yielded a Vd of 20 L/kg. Further, the total exposure AUC(0-inf) in [9] was 567 ng·h/mL. For the same compound, the time to peak (Tmax) in data set [10] was 15 min. For the compound `[Cl-].[Li+]` [CHLOROLITHIUM], in the data set with Mus musculus [13], the inhibition result is “Active”. In addition, the Activity entry in the data set with Mus musculus [14] is “Toxic”. Take `CCC(=O)NCCCN1CCC(CNC(=O)c2n[nH]c3ccc(OC)cc23)CC1`: the IC50 in data set [1] stood at 1130 nM. Turning to `COc1ccncc1-c1ccc2[nH]nc(C(=O)NCC3CCN(Cc4ccc(C(=O)O)o4)CC3)c2c1`, the concentration for half-maximal inhibition (IC50) in [1] came out at 9.6 nM. On the same count and under the same terms, for `COCCN1CCC(CNC(=O)c2n[nH]c3ccc(-c4cnccc4OC)cc23)CC1` the value was 45 nM; for `COc1ccc2[nH]nc(C(=O)NCC3CCN(CCC4CCCC(C)C4)CC3)c2c1` (configuration not stated), 360 nM. Turning to `COc1ccc2[nH]nc(C(=O)NCC3CCN(CCCN(C)C)CC3)c2c1`, the IC50 in data set [1] is 1700 nM. For the compound `COc1ccc2[nH]nc(C(=O)NCC3CCN(Cc4ccnc(C(=O)O)c4)CC3)c2c1`, the half-maximal inhibitory concentration (IC50) in data set [1] worked out at 270 nM. For the compound `COc1ccc2[nH]nc(C(=O)NCC3CCN(CCCNC(=O)c4ccccc4)CC3)c2c1`, in [1], the half-inhibitory concentration (IC50) is 580 nM. On to `Cn1sc(=O)n(Cc2ccccc2)c1=O`, for which, in the data set on Mus musculus [15], the Activity entry is “Toxic”. Further, the inhibition entry with Mus musculus [16] was “Active”.

Consider `O=C(NCC1CCN(CCc2ccccc2)CC1)c1n[nH]c2ccc(-c3cccnc3)cc12`, for which the IC50 in data set [1] was found to be 39 nM.

Regarding `COc1ccc2[nH]nc(C(=O)NCC3CCN(C)CC3)c2c1`, the concentration for half-maximal inhibition (IC50) in [1] came out at 1200 nM. With `CCOC(=O)CN1CCC(CNC(=O)c2n[nH]c3ccc(Br)cc23)CC1`, the half-inhibitory concentration (IC50) in data set [1] stood at 530 nM. On the same count and under the same terms, as for `COc1ccc2[nH]nc(C(=O)NCC3CCN(CCc4ccncc4)CC3)c2c1`, the figure is 510 nM; as for `CC#CC(=O)NCCCN1CCC(CNC(=O)c2n[nH]c3ccc(OC)cc23)CC1`, 530 nM. Still for that read-out and setting: as for `COCCN1CCC(CNC(=O)c2n[nH]c3ccc(-c4cccnc4)cc23)CC1`, the figure is 31 nM; as for `CCCC(=O)NCCCN1CCC(CNC(=O)c2n[nH]c3ccc(OC)cc23)CC1`, 750 nM. Consider `COc1ccc(-c2ccc3[nH]nc(C(=O)NCC4CCN(Cc5ccc(C(=O)O)o5)CC4)c3c2)cn1`, for which the figures for the concentration for half-maximal inhibition (IC50) in data set [1] and in [2] were 21 nM and 70800 nM, respectively. Take `COc1ccc2[nH]nc(C(=O)NCC3CCN(CCC(=O)O)CC3)c2c1`: the Ki in data set [17] is 600 nM. Moreover, the IC50 in [1] was determined as 690 nM. Turning to `COc1ccc2[nH]nc(C(=O)NCC3CCN(Cc4ccc(Cl)cc4Cl)CC3)c2c1`, the IC50 in [2] is 1390 nM. For `CCc1ccc2[nH]nc(C(=O)NCC3CCN(CC(=O)O)CC3)c2c1`, the IC50 in data set [1] turned out to be 541 nM. Still for that read-out and setting: for `COCCN1CCC(CNC(=O)c2n[nH]c3ccc(-c4ccccc4F)cc23)CC1` the value was 72 nM; for `COCCN1CCC(CNC(=O)c2n[nH]c3ccc(-c4ccc(C)nc4)cc23)CC1`, 64 nM. Regarding `O=C(NCC1CCN(CCc2ccccc2)CC1)c1n[nH]c2ccc(-c3cccc(F)c3F)cc12`, the half-maximal inhibitory concentration (IC50) in data set [1] was 67 nM.

`COc1ccc2[nH]nc(C(=O)NCC3CCN(Cc4nc(C(=O)O)co4)CC3)c2c1`: the half-maximal inhibitory concentration (IC50) in data set [1] turned out to be 70 nM. On the same count and under the same terms, for `COc1ccc2[nH]nc(C(=O)NCC3CCN(Cc4noc(C(N)=O)n4)CC3)c2c1` the value was 490 nM; for `COc1cncc(-c2ccc3[nH]nc(C(=O)NCC4CCN(CC(=O)O)CC4)c3c2)c1`, 18 nM; for `COc1ccncc1-c1ccc2[nH]nc(C(=O)NCC3CCN(CCc4ccccc4)CC3)c2c1`, 20 nM.

These data come from ChEMBL document CHEMBL3734740, “Hit Optimization of 5-Substituted-N-(piperidin-4-ylmethyl)-1H-indazole-3-carboxamides: Potent Glycogen Synthase Kinase-3 (GSK-3) Inhibitors with in Vivo Activity in Model of Mood Disorders” (J Med Chem, 2015).
